Source: patent US20130324522A1, “INSECT ODORANT RECEPTOR ANTAGONISTS” (THE ROCKEFELLER UNIVERSITY, priority 2010, published 2013)
pIC50: −log10 of the molar value.

What was measured:
Assay type in all cases: cell-based
mOREG = target: T1, mOREG (Mus musculus, UniProt Q920P2); experiment: Ca2+-imaging, control receptor mOREG; conditions: for inhibition at 4 µM: compound applied at 4 μM, read-out: Percent Inhibition mOREG
T1 sequence (Q920P2 1-313): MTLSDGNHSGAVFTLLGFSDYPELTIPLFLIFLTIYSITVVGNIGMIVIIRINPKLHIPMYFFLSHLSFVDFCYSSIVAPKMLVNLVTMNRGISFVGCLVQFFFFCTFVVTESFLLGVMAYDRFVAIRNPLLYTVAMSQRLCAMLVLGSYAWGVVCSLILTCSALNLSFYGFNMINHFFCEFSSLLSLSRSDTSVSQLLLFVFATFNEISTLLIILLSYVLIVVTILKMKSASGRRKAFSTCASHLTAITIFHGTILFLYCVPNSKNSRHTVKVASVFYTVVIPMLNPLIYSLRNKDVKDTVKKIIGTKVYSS
Method: (§1) Stable cell lines were cultured in 10 cm dishes, and confluent cells (70-80%) were trypsinized. 10,000 cells/20 μL were transferred into each well of 384-well plates coated with poly-D-lysine, and cultured for 2 days. For Flip-In T-Rex cells (cell lines expressing Or47a/Or83b and 5HT3), 5 μL of tetracycline (5 μg/mL) were added 1 day before the assay. 20 μL of Ca-4 dye was loaded into each well for 1.5 hr at room temperature in the dark, and the dye-loaded plates were subjected to Ca^2+-imaging using a Hamamatsu FDSS6000 real time fluorescence plate reader. Odorant solutions (9× final concentration) were prepared by dissolving 1M stock solutions into Hank's Buffered Salt Solution (HBSS), and 30 μL of odor solution was transferred to each well in 384-well plates. The last two columns of the plate (32 wells total) were used as control wells as follows: • negative control with HBSS buffer (16 wells) • positive control with ligands (16 wells).
(§2) Compounds ([…] in DMSO) were stored in 384-well plates, and last two columns (32 wells total) contained only DMSO. 200 nL of small compounds were transferred into the odorant plates before the assay using the Perkin-Elmer Janus workstation. The odorant plates were spun down to remove air bubbles, and placed on the FDSS6000 plate loader, and 5 μL of odorant solution was applied to the cell plate on the FDSS6000. Ca^2+ increase was monitored with fluorescence at 525 nm by excitation at 485 nm.

OR10/OR7 = OR10/OR7 (Anopheles gambiae, UniProt B5U0U7+Q7QCC7); experiment: Ca2+-imaging of stable HEK293T cell line OR10/OR7; conditions: for inhibition at 4 µM: HEK-293T, compound applied at 4 μM, read-out: Percent Inhibition OR10 OR7; for pIC50: Table B, read-out: IC50 OR10
Chain of OR10/OR7 (Q7QCC7 whole entry): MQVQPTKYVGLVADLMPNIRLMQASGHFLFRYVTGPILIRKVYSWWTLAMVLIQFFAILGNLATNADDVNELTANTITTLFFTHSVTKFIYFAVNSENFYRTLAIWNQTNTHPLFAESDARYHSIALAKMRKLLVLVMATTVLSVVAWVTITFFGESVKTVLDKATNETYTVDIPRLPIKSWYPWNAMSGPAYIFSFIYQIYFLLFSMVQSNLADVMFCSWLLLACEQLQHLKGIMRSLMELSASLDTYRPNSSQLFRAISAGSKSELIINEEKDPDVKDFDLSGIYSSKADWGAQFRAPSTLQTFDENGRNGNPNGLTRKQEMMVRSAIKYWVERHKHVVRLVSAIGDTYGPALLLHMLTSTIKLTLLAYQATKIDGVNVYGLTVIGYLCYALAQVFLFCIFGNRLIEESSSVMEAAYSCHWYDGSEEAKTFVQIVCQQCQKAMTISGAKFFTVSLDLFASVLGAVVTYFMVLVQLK
Chain of OR10/OR7 (B5U0U7 entry or part of it): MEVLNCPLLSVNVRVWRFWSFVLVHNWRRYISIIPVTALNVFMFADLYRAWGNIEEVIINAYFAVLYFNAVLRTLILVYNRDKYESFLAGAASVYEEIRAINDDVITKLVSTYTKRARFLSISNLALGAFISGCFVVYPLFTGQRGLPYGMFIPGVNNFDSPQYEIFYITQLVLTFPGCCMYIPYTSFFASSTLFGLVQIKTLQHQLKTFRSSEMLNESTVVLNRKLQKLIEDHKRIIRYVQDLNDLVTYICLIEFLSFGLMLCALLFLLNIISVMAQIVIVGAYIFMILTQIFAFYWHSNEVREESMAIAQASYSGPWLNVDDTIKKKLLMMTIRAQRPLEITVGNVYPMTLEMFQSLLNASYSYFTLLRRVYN
Method: (§3) Stable cell lines OR1/OR7, OR2/OR7, OR8/OR7, OR10/OR7, OR28/OR7 and TRPM8 were generated from HEK293T cells. HEK293T-based cell lines were cultured in DMEM supplemented with these additional antibiotics: 6 μg/mL blasticidin and 1 μg/mL puromycin, with the exception of the TRPM8 cell lines, which was cultured in DMEM supplemented with 1 μg/mL puromycin.
After one day of incubation, the transfected cells were transferred into 10 cm dishes with DMEM containing antibiotics as follows: • 0.5 μg/mL of blasticidin for OR1/OR7, OR2/OR7, OR8/OR7, OR10/OR7, OR28/OR7 • 0.2 μg/mL of puromycin for TRPM8.
as §1, with “plates.” for “plates. The last two columns of the plate (32 wells total) were used as control wells as follows: • negative control with HBSS buffer (16 wells) • positive control with ligands (16 wells).”
as §2

OR8/OR7 = OR8/OR7 (Anopheles gambiae, UniProt Q7PUT5+Q7QCC7); experiment: Ca2+-imaging of stable HEK293T cell line OR8/OR7; conditions: for inhibition at 4 µM: HEK-293T, compound applied at 4 μM, read-out: Percent Inhibition OR8 OR7; for pIC50: Table B, read-out: IC50 OR8
Chain of OR8/OR7 (Q7QCC7 whole entry): as the sequence (Q7QCC7 whole entry) above
Chain of OR8/OR7 (Q7PUT5 entry or part of it): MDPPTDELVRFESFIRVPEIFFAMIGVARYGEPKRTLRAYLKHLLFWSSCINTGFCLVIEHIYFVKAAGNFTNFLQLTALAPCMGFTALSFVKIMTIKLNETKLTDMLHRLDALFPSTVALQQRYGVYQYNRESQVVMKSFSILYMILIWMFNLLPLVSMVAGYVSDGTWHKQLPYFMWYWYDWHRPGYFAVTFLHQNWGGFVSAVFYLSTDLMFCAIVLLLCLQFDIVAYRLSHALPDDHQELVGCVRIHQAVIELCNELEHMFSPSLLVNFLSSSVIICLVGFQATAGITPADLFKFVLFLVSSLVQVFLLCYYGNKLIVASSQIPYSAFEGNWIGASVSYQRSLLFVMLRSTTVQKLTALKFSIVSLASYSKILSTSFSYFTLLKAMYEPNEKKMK
Method: (§4) Full-length cDNAs for mosquito (Anopheles gambiae) odorant receptor (OR1, OR2, OR7, OR8, OR28), and fly (Drosophila melanogaster) odorant receptor (Or47a, Or83b), mouse TRP channel (TRPM8), and mouse serotonin receptor (5HT3) were obtained and subcloned into mammalian expression vectors. The following mammalian expression vectors were used:
as §3
(§5) Cells were trypsinized and split into 35 mm dishes one day before transfection. Confluent cells (60-70%) in 35 mm dishes were transfected with 1 μg of insect OR(X) plasmids in pME18s-bla and 1 μg of OR7-pME18s-puro using lipofectamine 2000. For Anopheles odorant receptors, two plasmids were co-transfected into HEK cells: the ligand-specific receptor (OR1, OR2, OR8, OR28) and the corresponding olfactory co-receptor: OR7. Cell lines containing TRPM8 were transfected with single plasmid.
as §1, with “plates.” for “plates. The last two columns of the plate (32 wells total) were used as control wells as follows: • negative control with HBSS buffer (16 wells) • positive control with ligands (16 wells).”
as §2

TRP channel (TRPM8) = target: T2, TRP channel (TRPM8) (Mus musculus, UniProt Q8R4D5); experiment: Ca2+-imaging of stable HEK293T cell line TRPM8; conditions: HEK-293T; compound applied at 4 μM; read-out: Percent Inhibition TRPM8
T2 construct: Full-length cDNAs for mosquito (Anopheles gambiae) odorant receptor (OR1, OR2, OR7, OR8, OR28), and fly (Drosophila melanogaster) odorant receptor (Or47a, Or83b), mouse TRP channel (TRPM8); expressed in transfected cells
T2 sequence (Q8R4D5 whole entry): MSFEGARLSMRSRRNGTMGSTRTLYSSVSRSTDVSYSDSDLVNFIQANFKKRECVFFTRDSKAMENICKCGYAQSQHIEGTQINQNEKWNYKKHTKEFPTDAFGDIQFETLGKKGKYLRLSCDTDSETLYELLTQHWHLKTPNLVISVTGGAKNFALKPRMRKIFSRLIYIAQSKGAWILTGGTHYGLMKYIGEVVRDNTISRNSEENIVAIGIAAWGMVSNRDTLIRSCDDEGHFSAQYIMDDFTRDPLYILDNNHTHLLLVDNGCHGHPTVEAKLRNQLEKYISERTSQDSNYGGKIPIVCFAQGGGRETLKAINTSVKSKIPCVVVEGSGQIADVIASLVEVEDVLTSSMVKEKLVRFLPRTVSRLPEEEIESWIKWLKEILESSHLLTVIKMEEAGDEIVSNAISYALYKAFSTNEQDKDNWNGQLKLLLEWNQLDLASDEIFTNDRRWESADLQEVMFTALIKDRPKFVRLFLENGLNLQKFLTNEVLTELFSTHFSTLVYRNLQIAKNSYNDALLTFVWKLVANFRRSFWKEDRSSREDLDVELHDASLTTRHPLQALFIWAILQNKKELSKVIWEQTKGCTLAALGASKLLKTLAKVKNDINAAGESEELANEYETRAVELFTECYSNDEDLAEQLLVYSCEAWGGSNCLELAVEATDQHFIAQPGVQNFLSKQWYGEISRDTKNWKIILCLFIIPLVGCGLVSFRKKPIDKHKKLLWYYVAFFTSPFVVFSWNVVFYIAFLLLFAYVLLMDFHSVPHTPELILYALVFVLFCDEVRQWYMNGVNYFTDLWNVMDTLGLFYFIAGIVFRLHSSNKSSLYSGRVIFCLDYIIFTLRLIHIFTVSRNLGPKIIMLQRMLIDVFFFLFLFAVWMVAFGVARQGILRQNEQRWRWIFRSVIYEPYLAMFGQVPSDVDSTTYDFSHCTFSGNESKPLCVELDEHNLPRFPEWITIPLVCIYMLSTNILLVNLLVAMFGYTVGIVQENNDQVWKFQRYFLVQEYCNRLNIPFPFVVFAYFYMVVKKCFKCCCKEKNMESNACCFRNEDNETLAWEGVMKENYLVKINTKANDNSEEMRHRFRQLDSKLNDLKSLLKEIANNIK
Method: as §4, §3, §5
as §1, with “plates.” for “plates. The last two columns of the plate (32 wells total) were used as control wells as follows: • negative control with HBSS buffer (16 wells) • positive control with ligands (16 wells).”
as §2

Row | Compound | inhibition at 4 µM (mOREG) [%] | inhibition at 4 µM (OR10/OR7) [%] | inhibition at 4 µM (OR8/OR7) [%] | inhibition at 4 µM (TRP channel (TRPM8)) [%] | pIC50 (OR10/OR7) | pIC50 (OR8/OR7) | pIC50 (mOREG; Table B)
1 | CCOC(=O)C1CCCN(C(=O)c2csc(CSc3nnc(-c4cccc(OC)c4)n3-c3ccc(C)cc3)n2)C1 (stereo not drawn) [RU-0071628] | 26 to 50 | < 25 | 26 to 50 | < 25 | – | – | –
2 | COc1ccccc1C(=O)C1CCCN(C(=O)c2cccc(N3CCOCC3)c2)C1 (stereo not drawn) [RU-0029350] | 26 to 50 | 51 to 74 | 26 to 50 | 26 to 50 | < 6.00 | < 6.00 | –
3 | Cc1ccccc1C(=O)N[C@@H]1CCCCC1NC(=O)C1CCCN(S(=O)(=O)c2cc(Cl)ccc2Cl)C1 (stereo partly drawn) [RU-0045691] | 26 to 50 | 26 to 50 | < 25 | < 25 | – | – | –
4 | CCc1c(C(=O)NCc2cccnc2)cnn1-c1ccccc1 [RU-0048504] | < 25 | 51 to 74 | < 25 | < 25 | > 7.00 | – | –
5 | COCCNC(=O)c1ccc(CSc2nnc(-c3ccc(C)cc3)n2-c2ccccc2C)cc1 [RU-0053556] | 26 to 50 | 51 to 74 | 26 to 50 | 26 to 50 | < 6.00 | – | –
6 | CCN(CC)c1onc(-c2ccccc2)c1CN(CC1CCCO1)C(=O)c1ccc2c(c1)OCO2 (stereo not drawn) [RU-0036875] | 51 to 74 | 26 to 50 | 51 to 74 | < 25 | – | < 6.00 | < 6.00
7 | COc1ccc(-n2c(Cc3ccccc3)nnc2SCCCC(=O)N2CCN(C(=O)c3ccc(C(F)(F)F)cc3)C(C)C2)cc1 (stereo not drawn) [RU-0071828] | 26 to 50 | 26 to 50 | < 25 | < 25 | < 6.00 | – | –
8 | c1ccc(CNc2nc(NCc3ccco3)nc(N3CCOCC3)n2)cc1 [RU-0020050] | 26 to 50 | < 25 | > 75 | 26 to 50 | – | < 6.00 | –
9 | C=CCN(Cc1nccn1Cc1ccc(Cl)c(Cl)c1)C(=O)c1ccccc1F [RU-0047955] | < 25 | > 75 | < 25 | < 25 | > 7.00 | – | –
10 | O=C(C1CCC1)N(Cc1ccco1)Cc1nccn1Cc1ccccc1Cl [RU-0048066] | < 25 | 51 to 74 | < 25 | < 25 | > 7.00 | – | –
11 | CCc1cc(N2CCCC2)nc(SCc2ccc(C(=O)N3CCOCC3)o2)n1 [RU-0047568] | 26 to 50 | > 75 | 26 to 50 | 26 to 50 | > 7.00 | – | –
12 | C=CCNC(=O)C(NC(=O)c1cccc(C)c1)C1CCN(C(=O)c2cccc(Br)c2)CC1 (stereo not drawn) [RU-0039123] | 26 to 50 | 26 to 50 | 26 to 50 | < 25 | – | – | –
13 | O=C(c1cccc(F)c1)N(Cc1c(-c2ccccc2)noc1N1CCCC1)CC1CCCO1 (stereo not drawn) [RU-0037434] | 26 to 50 | 26 to 50 | 51 to 74 | < 25 | – | < 6.00 | –
14 | CCN(CC)c1onc(-c2ccc(F)cc2)c1CN(CCCOC)C(=O)c1ccc2c(c1)OCO2 [RU-0036983] | 26 to 50 | 26 to 50 | 51 to 74 | 26 to 50 | – | < 6.00 | –
15 | Cc1cccc(Cn2ccnc2CN(C(=O)c2ccccc2F)C2CCCCC2)c1 [RU-0047851] | 26 to 50 | > 75 | < 25 | < 25 | > 7.00 | – | –
16 | C=CCN(Cc1nccn1Cc1ccccc1F)C(=O)c1cccc(F)c1 [RU-0058232] | 26 to 50 | > 75 | 26 to 50 | 26 to 50 | > 7.00 | – | –
17 | COCCCN(Cc1c(-c2ccccc2)noc1N1CCCC1)C(=O)c1ccc(F)cc1 [RU-0037386] | 26 to 50 | 26 to 50 | 51 to 74 | < 25 | – | < 6.00 | –
18 | O=C(c1c(F)c(F)cc(F)c1F)N1CCOC(Cc2ccccc2)C1 (stereo not drawn) [RU-0050393] | 26 to 50 | 51 to 74 | 26 to 50 | < 25 | < 6.00 | – | –
19 | CCOC(=O)c1c(NC(C)=O)c(-c2ccc(OC)cc2)cn1Cc1ccccc1 [RU-0077733] | < 25 | 26 to 50 | < 25 | < 25 | – | – | –
